Patent US20030199516A1, “Methods of treating infection by drug resistant bacteria” (Genesoft, Inc., priority 2001, published 2003)

How the values were obtained:
[1] = biological target: target sequence AATTAATCAT (352 bp fragment, Plasmid C); assay: Quantitative DNase I footprint titration; type: binding; conditions: 352 bp C, 22° C., pH 7.0, read-out: Dissociation Constant Kd
Excerpt: (§1) Compounds (1) through (20) according to this invention were screened for their ability to bind to specified DNA target sequences, using DNase I footprinting. Generally, the procedure described in Dervan, WO 98/50582 (1998), was followed.
(§2) Three double stranded circular plasmids A, B, and C were used to prepare double stranded DNA-binding probes containing the target sequences for the DNase I footprint titration experiments. Plasmids A, B, and C had nucleotide sequences given by SEQ ID NO. I, SEQ ID NO. II, and SEQ ID NO. III, respectively.
(§3) The 3′-P32 end-labeled EcoRI/PvuII fragments from each plasmid were prepared by digesting the plasmids with EcoRI and PvuII with simultaneous fill-in using Sequenase v. 2.0, [alpha-P32]-deoxyadenosine-5′-triphosphate, and [alpha-P32]-thymidine-5′-triphosphate, and isolating the cloned fragments by nondenaturing gel electrophoresis. A and G sequencing reactions were carried out as described (See Maxam and Gilbert, Methods Enzymol., 1980, 65, 499-560; Iverson and Dervan, Methods Enzymol., 1987, 15, 7823-7830; Sambrook et al., 1989, Molecular Cloning, 2nd ed., Cold Spring Harbor Laboratory Press: Cold Spring Harbor, N.Y.) Standard methods were used for all DNA manipulations (Sambrook et al., ibid.) The cut sites for EcoRI and PvuII are indicated by bars in the respective maps of Plasmids A, B, and C in FIGS. 5, 6, and 7.
(§4) The 351 base pair dsDNA restriction fragment (SEQ ID NO. IV) of Plasmid A contained the target sequences AAAAAGCAAAAA, AAAAAGACAAAAA, and AAAAAGTACAAAAA. The 310 base pair dsDNA restriction fragment (SEQ ID NO. V) of Plasmid B contained the target sequences AGTACT, AATACT, and ATTACT. The 352 base pair dsDNA restriction fragment (SEQ ID NO. VI) of Plasmid C contained the target sequences TGACAATTAAT, GACAATTAATCA, AATTAATCAT, ACAATTA, and ACAATTAAT. These fragments were used for quantitative DNase I footprinting experiments. Compounds used in the method of this invention bind to at least one of the target sites with a equal to or less than 100 nM, preferably equal to or less than 50 nM, and more preferably equal to or less than 20 nM. The target sequences were selected for the identity with, or similarity to, promoter sites for bacterial genes.
(§5) Quantitative DNase I footprint titration experiments were carried out as described previously (Dervan, WO 98/50582, 1998) with the following changes. All reactions were carried out in a total volume of 400 μL, with compound stock solution or water added to 15,000 cpm radiolabeled restriction fragment affording final solution conditions of 10 mM Tris HCl, 10 mM KCl, 10 mM MgCl2, 5 mM CaCl2, pH 7.0 and 0.01 nM, 0.1 nM, 1.0 nM, 10.0 nM compound or no compound for reference lanes. The compounds were allowed to equilbrate at 22° C. for 16 h. Footprinting reactions were initiated with addition of 10 μL of a DNase I stock solution (at the appropriate concentration to give ˜50% intact DNA) containing 1 mM DTT and allowed to proceed for 7 min at 22° C. The reactions were stopped, ethanol precipitated, resuspended in loading buffer, heat denatured, and placed on ice as described previously (Dervan WO 98/50582, 1998). The reaction products were separated on a precast 8% polyacrylamide denaturing sequencing Castaway gel with 32 preformed wells from Stratagene in 1×TBE at 2000 V. Gels were dried according to the manufacturer and exposed to a storage phosphor screen (Molecular Dynamics). Quantitation and data analysis were carried out as described in Dervan, WO 98/50582, 1998.

[2] = biological target: target sequence AATACT (310 bp fragment, Plasmid B); assay: Quantitative DNase I footprint titration; type: binding; conditions: 310 bp B, 22° C., pH 7.0, read-out: Dissociation Constant Kd
Excerpt: as §1, §2, §3, §4, §5

[3] = tested on: Enterococcus faecium ATCC 51559; assay: NCCLS broth microdilution MIC; type: cell-based; conditions: Col. D = E. faecium ATCC 51559 (VRE)
Excerpt: (§6) In vitro antibacterial activity data were collected for the following Gram-positive bacteria: Staphylococcus aureus (ATCC 27660, ATCC 33591 and ATCC 43300, all methicillin resistant strains (MRSA's)); Streptococcus pneumoniae (ATCC 51422, a penicillin resistant strain (PRSP)), Enterococcus faecium (ATCC 51559, and/or a vancomycin resistant strain (VRE)). Additionally, antifungal activity data were collected for Candida albicans (ATCC 38247). Minimal inhibition concentrations (MIC's) were determined using the National Committee for Clinical Laboratory Standards (NCCLS) broth microdilution assay in microtiter plates, as set forth in: (1) the guidelines of the National Committee for Clinical Laboratory Standards (NCCLS) Document M7-A4 (NCCLS, 1997); (2) the guidelines of the National Committee for Clinical Laboratory Standards (NCCLS) Document M11-A4 (NCCLS, 1997); and (3) the guidelines and reference method of the National Committee for Clinical Laboratory Standards (NCCLS) Document M27-T (NCCLS, 1995). For antifungal essays, the method recommended in Murray, PR., 1995 Manual of Clinical Microbiology (ASM Press, Washington, D.C.), was employed.

[4] = tested on: Streptococcus pneumoniae ATCC 51422; assay: NCCLS broth microdilution MIC; type: cell-based; conditions: Col. E = S. pneumoniae ATCC 51422 (PRSP)
Excerpt: as §6

[5] = tested on: S. aureus ATCC 33591; assay: NCCLS broth microdilution MIC; type: cell-based, Staphylococcus aureus; conditions: Col. B = S. aureus ATCC 33591 (MRSA)
Excerpt: as §6

[6] = tested on: S. aureus ATCC 27660; assay: NCCLS broth microdilution MIC; type: cell-based, Staphylococcus aureus; conditions: Col. A = S. aureus ATCC 27660 (MRSA)
Excerpt: as §6

[7] = tested on: Candida albicans ATCC 38247; assay: Antifungal MIC; type: cell-based; conditions: Col. F = C. albicans ATCC 38247
Excerpt: as §6

[8] = biological target: target sequence ACAATTAAT (352 bp fragment, Plasmid C); assay: Quantitative DNase I footprint titration; type: binding; conditions: 352 bp C, 22° C., pH 7.0, read-out: Dissociation Constant Kd
Excerpt: as §1, §2, §3, §4, §5

[9] = biological target: target sequence AGTACT (310 bp fragment, Plasmid B); assay: Quantitative DNase I footprint titration; type: binding; conditions: 310 bp B, 22° C., pH 7.0, read-out: Dissociation Constant Kd
Excerpt: as §1, §2, §3, §4, §5

[10] = tested on: methicillin resistant Staphylococcus aureus ATCC 33591; assay: Mouse protection assay; type: in vivo; conditions: balb/c mice, 50 mg/kg intravenously at 2, 8, 18 and 24 hours post infection; vehicle 14
Experimental: (§7) A S. aureus ATCC 33591 culture was grown to log phase overnight and diluted in phosphate buffered saline (pH 7.2) to an optical density of about 0.1 at 600 nm, giving an approximate concentration of 10^8 cfu/mL. Porcine mucin was added to the suspension to a final concentration of 5% mucin. The suspension was diluted 1:100 for a final concentration of 10^6 cfu/mL.
Female balb/c mice (20 g body weight) were injected intraperitoneally with 0.5 mL of bactenal suspension (10^6 cfu/mL). Vehicle (phosphate buffered saline, pH 7.2) or test compound were administered intravenously at 2, 8, 18, and 24 hours post infection. The animals were monitored twice daily and survival counts were recorded up to 48 hours post infection.

[11] = tested on: S. aureus ATCC 43300; assay: NCCLS broth microdilution MIC; type: cell-based, Staphylococcus aureus; conditions: Col. C = S. aureus ATCC 43300 (MRSA)
Excerpt: as §6

[12] = biological target: target sequence GACAATTAATCA (352 bp fragment, Plasmid C); assay: Quantitative DNase I footprint titration; type: binding; conditions: 352 bp C, 22° C., pH 7.0, read-out: Dissociation Constant Kd
Excerpt: as §1, §2, §3, §4, §5

[13] = tested on: methicillin resistant Staphylococcus aureus ATCC 33591; assay: Murine neutropenic thigh model; type: in vivo; conditions: neutropenic CF1 mice, 80 mg/kg intravenously 2 h post infection, 6 hr after treatment, vehicle 7.83
Experimental: as §7, with “cfu/mL.” for “cfu/mL. Porcine mucin was added to the suspension to a final concentration of 5% mucin.”, “1:100 in phosphate buffered saline (pH 7.2)” for “1:100”
Outbred female CFI mice (approx. 20 gram body weight) were rendered netutropenic by treatment with cyclophosphamide (200 mg/kg body weight, intraperitoneal injection) at 2 and 4 days prior to inoculation. Groups of 5 mice were inoculated with 0.05 mL of the bacteria (approx. 10^6 cfu/mL) into the anterior thigh. Each group was treated intravenously two hours post infection with vehicle (phosphate buffered saline) or test compound. The mice were sacrificed at either 6 or 24 hrs after treatment and thighs were collected aseptically. Each thigh was weighed, placed into sterile saline, and homogenized. The tissue homogenates were diluted appropriately for plating on agar plates. Colony counts were recorded (cfu/gram) and compared to control groups.

[14] = biological target: target sequence ATTACT (310 bp fragment, Plasmid B); assay: Quantitative DNase I footprint titration; type: binding; conditions: 310 bp B, 22° C., pH 7.0, read-out: Dissociation Constant Kd
Excerpt: as §1, §2, §3, §4, §5

Cn1cc(NC(=O)c2cc(NC(=O)c3cc(NC(=O)c4ccc(Cl)cc4F)c[nH]3)cn2C)cc1C(=O)NCCN1CCOCC1 [Compound 10]
Kd [1]: 1 nM | Kd [2]: 5 nM | Minimum Inhibitory Concentration (MIC) [3]: + (+ = MIC ≦ 2) | Minimum Inhibitory Concentration (MIC) [4]: − (− = MIC > 2) | Minimum Inhibitory Concentration (MIC) [5]: − (− = MIC > 2) | Minimum Inhibitory Concentration (MIC) [6]: + (+ = MIC ≦ 2) | Minimum Inhibitory Concentration (MIC) [7]: 8 to 32 µg/mL

Cn1cc(NC(=O)c2cc(NC(=O)c3cc(NC(=O)c4cc5ccccc5cn4)cn3C)cn2C)cc1C(=O)NCCc1cccnc1 [Compound 14]
Kd [8]: 5 nM | Minimum Inhibitory Concentration (MIC) [3]: − (− = MIC > 2) | Minimum Inhibitory Concentration (MIC) [4]: + (+ = MIC ≦ 2) | Minimum Inhibitory Concentration (MIC) [5]: − (− = MIC > 2) | Minimum Inhibitory Concentration (MIC) [6]: ++ (++ = MIC ≦ 1) | Minimum Inhibitory Concentration (MIC) [7]: >32 µg/mL

Cn1cc(NC(=O)c2cc3ccccc3cn2)cc1C(=O)Nc1cc(C(=O)Nc2cc(C(=O)NCCN3CCCCC3)ns2)n(C)c1 [Compound 19]
Kd [8]: 1 nM | Minimum Inhibitory Concentration (MIC) [3]: ++ (++ = MIC ≦ 1) | Minimum Inhibitory Concentration (MIC) [4]: ++ (++ = MIC ≦ 1) | Minimum Inhibitory Concentration (MIC) [5]: + (+ = MIC ≦ 2) | Minimum Inhibitory Concentration (MIC) [6]: ++ (++ = MIC ≦ 1) | Minimum Inhibitory Concentration (MIC) [7]: >32 µg/mL

Cn1cc(NC(=O)c2cc3ccccc3cn2)cc1C(=O)Nc1cc(C(=O)Nc2cc(C(=O)NCCN3CCOCC3)n(CCN3CCOCC3)c2)n(C)c1 [Compound 17]
Kd [1]: 5 nM | Kd [9]: < 100 nM | Minimum Inhibitory Concentration (MIC) [3]: ++ (++ = MIC ≦ 1) | Minimum Inhibitory Concentration (MIC) [4]: ++ (++ = MIC ≦ 1) | Minimum Inhibitory Concentration (MIC) [5]: − (− = MIC > 2) | Minimum Inhibitory Concentration (MIC) [6]: ++ (++ = MIC ≦ 1) | Minimum Inhibitory Concentration (MIC) [7]: >32 µg/mL

Cn1cc(NC(=O)c2cc(NC(=O)c3cc(NC(=O)c4sccc4Cl)cn3C)cn2C)cc1C(=O)NCCN1CCOCC1 [Compound 6]
Survival at 48 hrs [10]: 86% | Kd [1]: 20 nM | Minimum Inhibitory Concentration (MIC) [3]: ++ (++ = MIC ≦ 1) | Minimum Inhibitory Concentration (MIC) [11]: − (− = MIC > 2) | Minimum Inhibitory Concentration (MIC) [5]: + (+ = MIC ≦ 2) | Minimum Inhibitory Concentration (MIC) [7]: >32 µg/mL

Cn1cc(NC(=O)c2cc(NC(=O)c3cc(NC(=O)c4sc5ccccc5c4Cl)c[nH]3)cn2C)cc1C(=O)NCCN1CCOCC1 [Compound 9]
Kd [12]: 0.1 nM | Colony Count [13]: 6.17 log cfu/gram | Minimum Inhibitory Concentration (MIC) [3]: + (+ = MIC ≦ 2) | Minimum Inhibitory Concentration (MIC) [4]: ++ (++ = MIC ≦ 1) | Minimum Inhibitory Concentration (MIC) [11]: + (+ = MIC ≦ 2) | Minimum Inhibitory Concentration (MIC) [5]: ++ (++ = MIC ≦ 1) | Minimum Inhibitory Concentration (MIC) [6]: ++ (++ = MIC ≦ 1) | Minimum Inhibitory Concentration (MIC) [7]: >32 µg/mL

Cc1cc(NC(=O)c2cc(NC(=O)c3cc(NC(=O)c4nsc(NCCN5CCCCC5)c4Cl)cn3C)cn2C)sn1 [Compound 13]
Kd [1]: 10 nM | Kd [14]: 5 nM | Minimum Inhibitory Concentration (MIC) [6]: ++ (++ = MIC ≦ 1) | Minimum Inhibitory Concentration (MIC) [7]: >32 µg/mL

Cn1cc(NC(=O)c2cc(NC(=O)c3cc(NC(=O)c4cc5ccccc5cn4)no3)cn2C)cc1C(=O)NCCN1CCOCC1 [Compound 20]
Kd [1]: 5 nM | Kd [9]: 10 nM | MIC ([6]; Staphylococcus aureus, read-out: Minimum Inhibitory Concentration (MIC)): ≤ 1 µg/mL | MIC ([7]; Candida albicans, ATCC38247, read-out: Minimum Inhibitory Concentration (MIC)): > 32 µg/mL
